US10981894B2, “Melanocortin subtype-2 receptor (MC2R) antagonists and uses thereof” (Crinetics Pharmaceuticals, Inc., priority 2018, dated 2021)
pKi: −log10 of the molar value.

Target: hMC2 receptor (Homo sapiens, UniProt Q01718)
Experiment: hMC2 membrane binding assay ([125I]ACTH (1-39) Tyr23, SPA)
Set-up: scale not given here
Settings: crude hMC2R membranes from CRE-bla-CHO-K1 cells expressing hMC2 receptor and hMRAP; [125I]ACTH (1-39) Tyr23 0.2 nM; 1.5 hours at room temperature; read-out: MC2R binding potency
Summary of the method: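 Ki comes from non-linear regression of SPA scintillation counts. Displacement of 0.2 nM [125I]ACTH(1-39) Tyr23 by compound dose series (usually 0–10,000 nM final) ran 1.5 h at room temperature. Membranes came from CHO-K1 CRE-bla cells stably expressing hMC2R plus hMRAP, bead-coupled in pH 7.4 buffer with 0.2% BSA.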

Sequence of hMC2 receptor (Q01718 whole entry): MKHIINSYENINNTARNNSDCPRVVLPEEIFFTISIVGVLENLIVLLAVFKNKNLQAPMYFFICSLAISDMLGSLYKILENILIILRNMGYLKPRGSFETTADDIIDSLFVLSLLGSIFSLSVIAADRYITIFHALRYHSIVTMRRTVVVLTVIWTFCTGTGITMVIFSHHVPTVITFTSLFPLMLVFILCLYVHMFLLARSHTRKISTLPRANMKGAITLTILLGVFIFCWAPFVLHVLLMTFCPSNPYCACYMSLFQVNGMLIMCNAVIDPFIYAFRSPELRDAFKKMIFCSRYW
Sequence of hMC2 receptor (Q8TCY5 whole entry partner): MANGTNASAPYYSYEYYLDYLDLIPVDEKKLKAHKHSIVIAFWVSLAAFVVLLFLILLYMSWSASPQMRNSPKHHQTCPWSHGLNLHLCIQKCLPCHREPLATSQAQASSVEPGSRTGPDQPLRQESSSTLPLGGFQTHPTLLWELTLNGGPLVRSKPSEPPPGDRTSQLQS

SMILES	pKi
CCOc1ncccc1-c1ccc(N2CCN(C(=O)c3ccc(F)cc3C(F)F)C[C@H]2CC)c(C(=O)N[C@@H]2CCNC2)n1 [Compound 1-278, 5-[(2R)-4-[2-(difluoromethyl)-4-fluorobenzoyl]-2-ethylpiperazin-1-yl]-2′-ethoxy-N-[(3R)-pyrrolidin-3-yl]-[2,3′-bipyridine]-6-carboxamide]	> 8.00
CCOc1ncccc1-c1ccc(N2CCN(C(=O)C3(C(F)(F)F)CCC3)C[C@H]2CC)c(C(=O)N[C@@H]2CCNC2)n1 [Compound 1-280, 2′-ethoxy-5-[(2R)-2-ethyl-4-[1-(trifluoromethyl)cyclobutanecarbonyl]piperazin-1-yl]-N-[(3R)-pyrrolidin-3-yl]-[2,3′-bipyridine]-6-carboxamide]	> 8.00
CCOc1ncccc1-c1ccc(N2CCN(C(=O)[C@H]3CC[C@@H](C(F)(F)F)CC3)C[C@H]2CC)c(C(=O)N[C@@H]2CCN(C)C2)n1 [Compound 1-286, 2′-ethoxy-5-[(2R)-2-ethyl-4-[cis-4-(trifluoromethyl)cyclohexanecarbonyl]piperazin-1-yl]-N-[(3R)-1-methylpyrrolidin-3-yl]-[2,3′-bipyridine]-6-carboxamide]	> 8.00
CCOc1ncccc1-c1ccc(N2CCN(C(=O)c3ccc(OC)nc3C(F)(F)F)C[C@H]2CC)c(C(=O)N[C@@H]2CN(C)C[C@H]2F)n1 [Compound 1-290, 2′-ethoxy-5-[(2R)-2-ethyl-4-[6-methoxy-2-(trifluoromethyl)pyridine-3-carbonyl]piperazin-1-yl]-N-[(3R,4R)-4-fluoro-1-methylpyrrolidin-3-yl]-[2,3′-bipyridine]-6-carboxamide]	> 8.00

Next, values leading:

pKi	SMILES
> 8.00	CCOc1ncccc1-c1ccc(N2CCN(C(=O)c3ccc(F)cc3C(F)F)C[C@H]2CC)c(C(=O)N[C@@H]2CCN(C)C2)n1 [Compound 1-279, 5-[(2R)-4-[2-(difluoromethyl)-4-fluorobenzoyl]-2-ethylpiperazin-1-yl]-2′-ethoxy-N-[(3R)-1-methylpyrrolidin-3-yl]-[2,3′-bipyridine]-6-carboxamide]
> 8.00	CCOc1ncccc1-c1ccc(N2CCN(C(=O)C34CCC(C(F)(F)F)(CC3)CC4)C[C@H]2CC)c(C(=O)N[C@@H]2CCN(C)C2)n1 [Compound 1-282, 2′-ethoxy-5-[(2R)-2-ethyl-4-[4-(trifluoromethyl)bicyclo[2.2.2]octane-1-carbonyl]piperazin-1-yl]-N-[(3R)-1-methylpyrrolidin-3-yl]-[2,3′-bipyridine]-6-carboxamide]
> 8.00	CCOc1ncccc1-c1ccc(N2CCN(C(=O)C3(C(F)(F)F)CCC3)C[C@H]2CC)c(C(=O)N[C@@H]2CCN(C)C2)n1 [Compound 1-283, 2′-ethoxy-5-[(2R)-2-ethyl-4-[1-(trifluoromethyl)cyclobutanecarbonyl]piperazin-1-yl]-N-[(3R)-1-methylpyrrolidin-3-yl]-[2,3′-bipyridine]-6-carboxamide]
> 8.00	CCOc1ccccc1-c1ccc(N2CCN(C(=O)c3ccc(Cl)cc3C(F)F)C[C@H]2CC)c(C(=O)N[C@@H]2CCN(C)C2)n1 [Compound 1-287, 3-[(2R)-4-[4-chloro-2-(difluoromethyl)benzoyl]-2-ethylpiperazin-1-yl]-6-(2-ethoxyphenyl)-N-[(3R)-1-methylpyrrolidin-3-yl]pyridine-2-carboxamide]
> 8.00	CCOc1ccccc1-c1ccc(N2CCN(C(=O)c3ccc(Cl)cc3C(F)F)C[C@H]2CC)c(C(=O)N[C@@H]2CCNC2)n1 [Compound 1-288, 3-[(2R)-4-[4-chloro-2-(difluoromethyl)benzoyl]-2-ethylpiperazin-1-yl]-6-(2-ethoxyphenyl)-N-[(3R)-pyrrolidin-3-yl]pyridine-2-carboxamide]
> 8.00	CCOc1ncccc1-c1ccc(N2CCN(C(=O)c3ccc(OC)nc3C(F)(F)F)C[C@H]2CC)c(C(=O)N[C@@H]2CNC[C@H]2F)n1 [Compound 1-289, 2′-ethoxy-5-[(2R)-2-ethyl-4-[6-methoxy-2-(trifluoromethyl)pyridine-3-carbonyl]piperazin-1-yl]-N-[(3R,4R)-4-fluoropyrrolidin-3-yl]-[2,3′-bipyridine]-6-carboxamide]
